Measured values taken from patent US10040781B2, “Tank-binding kinase inhibitor compounds” (Gilead Sciences, Inc., priority 2014, dated 2018).
Where two headings read alike, the source gives them in different places.

Tests used:
[1] = target: hJAK2 (Homo sapiens (Human), UniProt O60674); assay: hJAK2 LANCE TR-FRET enzymatic assay; assay type: biochemical; details: read-out: JAK2 IC50
[2] = target: TBK1 (Homo sapiens (Human), UniProt Q9UHD2); assay: TBK1 TR-FRET enzymatic assay;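 also: phosphorylation of a biotinylated Ser/Thr peptide by purified full-length recombinant TBK1, read by TR-FRET after 240 min at 25 °C, IC50 is the geometric mean of at least four runs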
[3] = target: IKKε (Homo sapiens (Human), UniProt Q14164); assay: IKKε TR-FRET enzymatic assay; assay type: biochemical; details: read-out: IKKe IC50
[4] = TR-FRET, 2×Km ATP, geometric mean of minimum four determinations

IKKε, sequence (Q14164 whole entry): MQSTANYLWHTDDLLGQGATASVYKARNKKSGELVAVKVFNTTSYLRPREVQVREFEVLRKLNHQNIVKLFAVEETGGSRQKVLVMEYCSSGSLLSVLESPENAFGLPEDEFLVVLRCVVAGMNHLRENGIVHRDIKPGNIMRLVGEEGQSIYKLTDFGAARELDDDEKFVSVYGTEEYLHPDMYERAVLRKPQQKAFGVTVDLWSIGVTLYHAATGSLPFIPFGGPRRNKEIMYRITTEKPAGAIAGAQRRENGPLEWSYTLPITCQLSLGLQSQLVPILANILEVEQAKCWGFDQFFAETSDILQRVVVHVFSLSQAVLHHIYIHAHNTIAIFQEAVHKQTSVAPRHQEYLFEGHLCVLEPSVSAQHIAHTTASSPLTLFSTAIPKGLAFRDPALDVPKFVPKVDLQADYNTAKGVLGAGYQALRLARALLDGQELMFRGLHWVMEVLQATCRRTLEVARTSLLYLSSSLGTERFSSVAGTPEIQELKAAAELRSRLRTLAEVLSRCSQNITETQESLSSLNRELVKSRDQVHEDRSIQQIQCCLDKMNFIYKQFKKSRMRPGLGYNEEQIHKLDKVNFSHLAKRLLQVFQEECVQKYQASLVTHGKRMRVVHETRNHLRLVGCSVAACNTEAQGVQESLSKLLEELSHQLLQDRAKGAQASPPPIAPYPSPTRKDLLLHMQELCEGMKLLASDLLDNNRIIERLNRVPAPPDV
hJAK2, sequence (O60674 whole entry): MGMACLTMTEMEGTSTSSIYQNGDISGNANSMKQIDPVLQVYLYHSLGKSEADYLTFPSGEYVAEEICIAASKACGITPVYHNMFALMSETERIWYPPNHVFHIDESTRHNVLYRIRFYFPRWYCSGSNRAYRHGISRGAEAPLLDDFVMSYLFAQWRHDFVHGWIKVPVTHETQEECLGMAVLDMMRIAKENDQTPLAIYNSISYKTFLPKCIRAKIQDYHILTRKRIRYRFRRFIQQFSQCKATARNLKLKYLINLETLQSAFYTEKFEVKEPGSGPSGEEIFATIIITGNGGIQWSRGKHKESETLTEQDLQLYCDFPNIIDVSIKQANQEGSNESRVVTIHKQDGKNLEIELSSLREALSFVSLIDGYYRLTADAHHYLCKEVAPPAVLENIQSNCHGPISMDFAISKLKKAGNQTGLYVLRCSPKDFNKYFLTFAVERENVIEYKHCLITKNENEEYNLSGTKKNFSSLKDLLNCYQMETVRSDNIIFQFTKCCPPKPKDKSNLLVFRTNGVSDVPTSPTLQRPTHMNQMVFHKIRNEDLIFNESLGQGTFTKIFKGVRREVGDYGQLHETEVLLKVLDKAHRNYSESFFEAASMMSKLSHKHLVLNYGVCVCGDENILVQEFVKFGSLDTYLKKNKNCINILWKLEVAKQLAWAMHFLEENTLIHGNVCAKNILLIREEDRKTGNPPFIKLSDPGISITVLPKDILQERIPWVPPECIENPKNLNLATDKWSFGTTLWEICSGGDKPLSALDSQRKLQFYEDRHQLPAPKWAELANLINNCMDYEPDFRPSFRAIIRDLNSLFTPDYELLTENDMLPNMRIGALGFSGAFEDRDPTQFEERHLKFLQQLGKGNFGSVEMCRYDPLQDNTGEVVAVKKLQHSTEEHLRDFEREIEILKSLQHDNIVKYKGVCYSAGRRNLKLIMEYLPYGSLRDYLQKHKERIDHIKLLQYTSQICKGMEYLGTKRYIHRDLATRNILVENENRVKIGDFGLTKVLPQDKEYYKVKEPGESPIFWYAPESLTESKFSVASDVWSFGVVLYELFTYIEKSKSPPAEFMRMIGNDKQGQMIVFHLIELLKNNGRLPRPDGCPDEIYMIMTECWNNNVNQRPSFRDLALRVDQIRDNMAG
TBK1, sequence (Q9UHD2 whole entry): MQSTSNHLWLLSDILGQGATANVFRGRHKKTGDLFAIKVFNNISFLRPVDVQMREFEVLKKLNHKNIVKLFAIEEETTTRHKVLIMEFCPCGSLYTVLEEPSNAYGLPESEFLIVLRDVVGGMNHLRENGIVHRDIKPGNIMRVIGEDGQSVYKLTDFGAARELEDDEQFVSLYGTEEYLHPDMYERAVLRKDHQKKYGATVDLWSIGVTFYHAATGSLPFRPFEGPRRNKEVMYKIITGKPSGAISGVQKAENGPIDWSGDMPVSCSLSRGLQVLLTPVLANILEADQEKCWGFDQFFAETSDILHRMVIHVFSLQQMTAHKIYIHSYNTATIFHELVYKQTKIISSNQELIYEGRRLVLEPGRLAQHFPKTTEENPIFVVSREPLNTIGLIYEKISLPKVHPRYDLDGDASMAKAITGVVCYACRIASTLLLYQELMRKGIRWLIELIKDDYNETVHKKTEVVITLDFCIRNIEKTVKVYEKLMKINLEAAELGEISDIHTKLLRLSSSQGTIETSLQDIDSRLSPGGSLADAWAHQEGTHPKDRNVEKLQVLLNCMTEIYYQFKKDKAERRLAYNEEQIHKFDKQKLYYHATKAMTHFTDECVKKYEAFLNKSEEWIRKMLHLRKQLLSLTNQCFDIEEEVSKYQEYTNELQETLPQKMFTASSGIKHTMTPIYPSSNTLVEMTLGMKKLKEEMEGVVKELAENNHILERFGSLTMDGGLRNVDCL

Row | Compound | IC50 [1] [nM] | IC50 [2] [nM] | IC50 [3, 4] [nM] | IC50 [3] [nM]
1 | N#Cc1cc(-c2ncnc(Nc3ccc(N4CCN(C5COC5)CC4)cc3)n2)ccc1O[C@H]1CCN(C(=O)C(O)CO)CC1(F)F (stereo partly drawn) [Example 580, 2-(((4S)-1-(2,3-dihydroxypropanoyl)-3,3-difluoropiperidin-4-yl)oxy)-5-(4-((4-(4-(oxetan-3-yl)piperazin-1-yl)phenyl)amino)-1,3,5-triazin-2-yl)benzonitrile] | 165 | 2 | 1 | 
2 | N#Cc1cc(-c2ncnc(Nc3ccc(N4CCN(C5COC5)CC4)cc3)n2)ccc1O[C@H]1CCN(C(=O)[C@@H](O)CO)CC1(F)F [Example 581, 2-(((S)-1-((S)-2,3-dihydroxypropanoyl)-3,3-difluoropiperidin-4-yl)oxy)-5-(4-((4-(4-(oxetan-3-yl)piperazin-1-yl)phenyl)amino)-1,3,5-triazin-2-yl)benzonitrile] | 86 | 2 | 1 | 
3 | N#Cc1cc(-c2ncnc(Nc3ccc(N4CCN(C5COC5)CC4)cc3)n2)ccc1O[C@H]1CCN(C(=O)[C@H](O)CO)CC1(F)F [Example 582, 2-(((S)-1-((R)-2,3-dihydroxypropanoyl)-3,3-difluoropiperidin-4-yl)oxy)-5-(4-((4-(4-(oxetan-3-yl)piperazin-1-yl)phenyl)amino)-1,3,5-triazin-2-yl)benzonitrile] | 98 | 2 | 1 | 
4 | C[C@H](O)C(=O)N1CC[C@H](Oc2ccc(-c3ncnc(Nc4ccc(N5CCN(CCO)CC5)cc4)n3)cc2C#N)[C@H](F)C1 [Example 583, 2-(((3R,4S)-3-fluoro-1-((S)-2-hydroxypropanoyl)piperidin-4-yl)oxy)-5-(4-((4-(4-(2-hydroxyethyl)piperazin-1-yl)phenyl)amino)-1,3,5-triazin-2-yl)benzonitrile] | 479 | 2 | 1 | 
5 | N#Cc1cc(-c2ncnc(Nc3ccc(N4CCN(C5COC5)CC4)cc3)n2)ccc1O[C@H]1CCN(C(=O)[C@@H](O)CO)C[C@H]1F [Example 584, 2-(((3R,4S)-1-((S)-2,3-dihydroxypropanoyl)-3-fluoropiperidin-4-yl)oxy)-5-(4-((4-(4-(oxetan-3-yl)piperazin-1-yl)phenyl)amino)-1,3,5-triazin-2-yl)benzonitrile] | 433 | 2 | 1 | 
6 | N#Cc1cc(-c2ncnc(Nc3ccc(N4CCN(C5COC5)CC4)cc3)n2)ccc1O[C@H]1CCN(C(=O)[C@H](O)CO)C[C@H]1F [Example 585, 2-(((3R,4S)-1-((R)-2,3-dihydroxypropanoyl)-3-fluoropiperidin-4-yl)oxy)-5-(4-((4-(4-(oxetan-3-yl)piperazin-1-yl)phenyl)amino)-1,3,5-triazin-2-yl)benzonitrile] | 294 | 2 | 3 | 
7 | CC(C#N)C(=O)N1CC[C@H](Oc2ccc(-c3ncnc(Nc4ccc(N5CCN(C6COC6)CC5)cc4)n3)cc2C#N)[C@H](F)C1 (stereo partly drawn) [Example 586, 2-(((3R,4S)-1-(2-cyanopropanoyl)-3-fluoropiperidin-4-yl)oxy)-5-(4-((4-(4-(oxetan-3-yl)piperazin-1-yl)phenyl)amino)-1,3,5-triazin-2-yl)benzonitrile] | 212 | 11 | 28 | 
8 | N#Cc1cc(-c2ncnc(Nc3ccc(N4CCN(C5COC5)CC4)cc3)n2)ccc1O[C@H]1CCN(C(=O)C2(C#N)CC2)C[C@H]1F [Example 587, 2-(((3R,4S)-1-(1-cyanocyclopropanecarbonyl)-3-fluoropiperidin-4-yl)oxy)-5-(4-((4-(4-(oxetan-3-yl)piperazin-1-yl)phenyl)amino)-1,3,5-triazin-2-yl)benzonitrile] | 235 | 30 | 49 | 
9 | N#Cc1cc(-c2ncnc(Nc3ccc(N4CCN(C5COC5)CC4)cc3)n2)ccc1O[C@H]1CCN(C(=O)[C@@H]2C[C@H](O)CN2)C[C@H]1F [Example 588, 2-(((3R,4S)-3-fluoro-1-((2S,4S)-4-hydroxypyrrolidine-2-carbonyl)piperidin-4-yl)oxy)-5-(4-((4-(4-(oxetan-3-yl)piperazin-1-yl)phenyl)amino)-1,3,5-triazin-2-yl)benzonitrile] | ≥ 1000 | 18 | 49 | 
10 | N#Cc1cc(-c2ncnc(Nc3ccc(N4CCN(C5COC5)CC4)cc3)n2)ccc1O[C@H]1CCN(C(=O)[C@@H]2C[C@@H](O)CN2)C[C@H]1F [Example 589, 2-(((3R,4S)-3-fluoro-1-((2S,4R)-4-hydroxypyrrolidine-2-carbonyl)piperidin-4-yl)oxy)-5-(4-((4-(4-(oxetan-3-yl)piperazin-1-yl)phenyl)amino)-1,3,5-triazin-2-yl)benzonitrile] | 855 | 18 | 28 | 
11 | C[C@H](O)C(=O)N1CC[C@H](COc2cc(C#N)cc(-c3ncnc(Nc4ccc(N5CCN(C6COC6)CC5)cc4)n3)c2)C1 [Example 590, 3-(((S)-1-((S)-2-hydroxypropanoyl)pyrrolidin-3-yl)methoxy)-5-(4-((4-(4-(oxetan-3-yl)piperazin-1-yl)phenyl)amino)-1,3,5-triazin-2-yl)benzonitrile] | ≥ 1000 | 528 | ≥ 1000 | 
12 | N#Cc1cc(OC[C@H]2CCN(C(=O)CO)C2)cc(-c2ncnc(Nc3ccc(N4CCN(C5COC5)CC4)cc3)n2)c1 [Example 591, (S)-3-((1-(2-hydroxyacetyl)pyrrolidin-3-yl)methoxy)-5-(4-((4-(4-(oxetan-3-yl)piperazin-1-yl)phenyl)amino)-1,3,5-triazin-2-yl)benzonitrile] | 658 | 474 | ≥ 1000 | 
13 | N#Cc1cc(-c2ncnc(Nc3ccc(N4CCN(C5COC5)CC4)cc3)n2)ccc1OCCn1ccnc1 [Example 592, 2-(2-(1H-imidazol-1-yl)ethoxy)-5-(4-((4-(4-(oxetan-3-yl)piperazin-1-yl)phenyl)amino)-1,3,5-triazin-2-yl)benzonitrile] | 239 | 21 | 23 | 
14 | Cn1ccc(C(=O)N2CCC(COc3ccc(-c4ncnc(Nc5ccc(N6CCN(C7COC7)CC6)cc5)n4)cc3C#N)CC2)cc1=O [Example 593, 2-((1-(1-methyl-2-oxo-1,2-dihydropyridine-4-carbonyl)piperidin-4-yl)methoxy)-5-(4-((4-(4-(oxetan-3-yl)piperazin-1-yl)phenyl)amino)-1,3,5-triazin-2-yl)benzonitrile] | ≥ 1000 | 452 | 660 | 
15 | N#Cc1cc(-c2ncnc(Nc3ccc(N4CCN(C5COC5)CC4)cc3)n2)ccc1OCC1CCC(=O)N1 (stereo not drawn) [Example 594, 5-(4-((4-(4-(oxetan-3-yl)piperazin-1-yl)phenyl)amino)-1,3,5-triazin-2-yl)-2-((5-oxopyrrolidin-2-yl)methoxy)benzonitrile] | ≥ 1000 | 169 | 232 | 
16 | Cn1ccc(C(=O)N2CCC(Oc3ccc(-c4ncnc(Nc5ccc(N6CCN(C7COC7)CC6)cc5)n4)cc3C#N)CC2)cc1=O [Example 595, 2-((1-(1-methyl-2-oxo-1,2-dihydropyridine-4-carbonyl)piperidin-4-yl)oxy)-5-(4-((4-(4-(oxetan-3-yl)piperazin-1-yl)phenyl)amino)-1,3,5-triazin-2-yl)benzonitrile] | ≥ 1000 | 69 | 89 | 
17 | CN1CCC(COc2ccc(-c3ncnc(Nc4ccc(N5CCN(C6COC6)CC5)cc4)n3)cc2C#N)CC1=O (stereo not drawn) [Example 596, 2-((1-methyl-2-oxopiperidin-4-yl)methoxy)-5-(4-((4-(4-(oxetan-3-yl)piperazin-1-yl)phenyl)amino)-1,3,5-triazin-2-yl)benzonitrile] | ≥ 1000 | 264 | 403 | 
18 | N#Cc1cc(-c2ncnc(Nc3ccc(N4CCN(C5COC5)CC4)cc3)n2)ccc1OCCC1CNC(=O)C1 (stereo not drawn) [Example 597, 5-(4-((4-(4-(oxetan-3-yl)piperazin-1-yl)phenyl)amino)-1,3,5-triazin-2-yl)-2-(2-(5-oxopyrrolidin-3-yl)ethoxy)benzonitrile] | ≥ 1000 | 95 | 131 | 
19 | N#Cc1cc(-c2ncnc(Nc3ccc(N4CCN(C5COC5)CC4)cc3)n2)ccc1OCCNC(=O)c1cccnc1 [Example 598, N-(2-(2-cyano-4-(4-((4-(4-(oxetan-3-yl)piperazin-1-yl)phenyl)amino)-1,3,5-triazin-2-yl)phenoxy)ethyl)nicotinamide] | 521 | 267 | 720 | 
20 | N#Cc1cc(-c2ncnc(Nc3ccc(N4CCN(C5COC5)CC4)cc3)n2)ccc1OCCc1cnc2ncnn2c1 [Example 599] | 510 | 37 |  | 176
21 | COCCN1CC(COc2ccc(-c3ncnc(Nc4ccc(N5CCN(C6COC6)CC5)cc4)n3)cc2C#N)CC1=O (stereo not drawn) [Example 601, 2-((1-(2-methoxyethyl)-5-oxopyrrolidin-3-yl)methoxy)-5-(4-((4-(4-(oxetan-3-yl)piperazin-1-yl)phenyl)amino)-1,3,5-triazin-2-yl)benzonitrile] | ≥ 1000 | 1000 |  | ≥ 1000
22 | N#Cc1cc(-c2ncnc(Nc3ccc(N4CCN(C5COC5)CC4)cc3)n2)ccc1OCCNC(N)=O [Example 602, 1-(2-(2-cyano-4-(4-((4-(4-(oxetan-3-yl)piperazin-1-yl)phenyl)amino)-1,3,5-triazin-2-yl)phenoxy)ethyl)urea] | ≥ 1000 | 126 |  | 619
23 | N#Cc1cc(-c2ncnc(Nc3ccc(N4CCN(C5COC5)CC4)cc3)n2)ccc1OCC1CCNC(=O)C1 (stereo not drawn) [Example 604, 5-(4-((4-(4-(oxetan-3-yl)piperazin-1-yl)phenyl)amino)-1,3,5-triazin-2-yl)-2-((2-oxopiperidin-4-yl)methoxy)benzonitrile] | 950 | 28 |  | 37
